# In patent US8183001B2 (priority 2006, dated 2012):
# Where two headings read alike, the source gives them in different places.
# Legend:
# [1] = test system: mammalian GABAA receptor with α1 subunit XY segment replaced with UNC-49B XY sequence; experiment: Neurosteroid positive modulation, subunits expressed in Xenopus oocytes; assay type: cell-based; conditions: altered receptor compared to the wild-type receptor
# Experimental: It has been shown that one variant of the XY segment conferred high PS sensitivity (the UNC-49C sequence) (Example 1), while another variant of the XY segment conferred low PS sensitivity (the UNC-49B sequence). Subunits of mammalian GABAA receptors also contain an XY segment. It was tested whether neurosteroid sensitivity of mammalian receptors similarly depended on their XY segments. The mammalian XY segment (within the α1 subunit) was replaced with the low-sensitivity UNC-49B XY sequence variant. […] Both positive and negative modulation of GABAA receptors are therapeutically beneficial.
# [2] = molecular target: T1, UNC-49B homomer (GABA receptor) (Caenorhabditis elegans, UniProt G5ECD3); experiment: Pentobarbital enhancement of UNC-49B homomer (FIG. 14B, allosteric regulation of UNC-49); assay type: cell-based
# T1 construct: homopentamer; two-electrode voltage clamp
# Experimental: (§1) Like their mammalian homologs, UNC-49 subunits contain a large extracellular amino terminal region, and four transmembrane domains labeled M1-M4.
# (§2) Electrophysiology: Plasmids containing wild-type and mutagenized GABAA receptor subunits were linearized and transcribed in vitro using T3 RNA polymerase (mMessage mMachine T3 kit, Ambion, Austin Tex.). UNC-49B mRNA was injected into Xenopus laevis oocytes at 0.5 μg/μl either alone, or in a mixture with 0.5 μg/μl UNC-49C. […] The injection volume ranged between 27.6 nl to 50.6 nl. […] Cells were voltage clamped at −60 mV. All recordings were performed at room temperature.
# UNC-49B homomer [3] = molecular target: T2, UNC-49B homomer (Caenorhabditis elegans, UniProt G5ECD3); assay type: cell-based, C. elegans
# Experimental: as §2
# UNC-49B homomer [4] = molecular target: T2, UNC-49B homomer; conditions: UNC-49B homomers; Bamber et al., 2003; cited from earlier work
# UNC-49B/C heteromer [5] = molecular target: T3, UNC-49B/C heteromer (Caenorhabditis elegans, UniProt G5ECD3+G5EE10); conditions: UNC-49B/C heteromers; Bamber et al., 2003; cited from earlier work
# B-β3 chimera = experiment: Pregnanolone response of B-β3 chimera; assay type: cell-based
# Excerpt: A) Structure of the B-β3 chimera. B) The B-β3 chimera is enhanced by pregnanolone.
# QF-R = QF-R (Caenorhabditis elegans, UniProt G5ECD3, N259Q/N305R/V261F); assay type: cell-based, C. elegans; conditions: QF-R subunit compared with wild-type UNC-49B and Y chimera; at EC50 GABA
# Experimental: as §2
# The conserved residues were tested in the UNC-49C M1 domain in a similar way. […] To test the importance of these conserved residues, they were substituted into an UNC-49B subunit with the linker mutation N305R to create the ‘QF-R’ subunit (FIG. 3c).
# UNC-49B-PS7 = assay type: cell-based, C. elegans; conditions: UNC-49B-PS7 versus UNC-49B/C heteromer; at EC50 GABA
# Experimental: as §2
# Y chimera = Y chimera (Caenorhabditis elegans, UniProt G5ECD3, I265S/I267V/I270L/N259Q/N305R/T269V/V261F/V273I); assay type: cell-based, C. elegans; conditions: Y chimera compared with wild-type UNC-49B and QF-R subunit; at EC50 GABA
# Experimental: as §2
# UNC-49B/C heteromer [6] = molecular target: T3, UNC-49B/C heteromer; assay type: cell-based; conditions: UNC-49B/C heteromers
# Experimental: as §2
# [7] = molecular target: T4, UNC-49B/C heteromer (GABA receptor) (Caenorhabditis elegans, UniProt G5ECD3+G5EE10); experiment: Picrotoxin inhibition of GABA-evoked currents, UNC-49B/C heteromer (FIG. 14A; two-electrode voltage clamp, Xenopus oocytes); assay type: cell-based; conditions: co-application of GABA and picrotoxin
# T4 construct: two-electrode voltage clamp
# Experimental: as §1, §2
# [8] = molecular target: T1, UNC-49B homomer (GABA receptor); experiment: Picrotoxin inhibition of GABA-evoked currents, UNC-49B homomer (FIG. 14A; two-electrode voltage clamp, Xenopus oocytes); assay type: cell-based; conditions: co-application of GABA and picrotoxin
# Experimental: as §1, §2
# T2 sequence (G5ECD3 entry or part of it): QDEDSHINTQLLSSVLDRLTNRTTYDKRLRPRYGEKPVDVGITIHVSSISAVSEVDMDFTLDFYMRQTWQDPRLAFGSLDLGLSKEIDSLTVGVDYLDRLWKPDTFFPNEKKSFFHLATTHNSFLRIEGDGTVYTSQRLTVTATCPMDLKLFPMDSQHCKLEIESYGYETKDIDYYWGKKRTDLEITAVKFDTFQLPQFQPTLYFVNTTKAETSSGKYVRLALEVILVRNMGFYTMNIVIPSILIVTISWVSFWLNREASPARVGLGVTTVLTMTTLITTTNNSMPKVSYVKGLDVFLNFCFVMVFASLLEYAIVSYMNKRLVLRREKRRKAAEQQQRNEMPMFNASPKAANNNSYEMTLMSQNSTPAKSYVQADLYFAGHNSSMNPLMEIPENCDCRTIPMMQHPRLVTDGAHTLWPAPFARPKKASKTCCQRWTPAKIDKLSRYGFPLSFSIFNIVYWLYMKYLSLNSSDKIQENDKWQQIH
# T1 sequence (G5ECD3 23-506): as the sequence (G5ECD3 entry or part of it) above
# T3 sequence (G5EE10 entry or part of it): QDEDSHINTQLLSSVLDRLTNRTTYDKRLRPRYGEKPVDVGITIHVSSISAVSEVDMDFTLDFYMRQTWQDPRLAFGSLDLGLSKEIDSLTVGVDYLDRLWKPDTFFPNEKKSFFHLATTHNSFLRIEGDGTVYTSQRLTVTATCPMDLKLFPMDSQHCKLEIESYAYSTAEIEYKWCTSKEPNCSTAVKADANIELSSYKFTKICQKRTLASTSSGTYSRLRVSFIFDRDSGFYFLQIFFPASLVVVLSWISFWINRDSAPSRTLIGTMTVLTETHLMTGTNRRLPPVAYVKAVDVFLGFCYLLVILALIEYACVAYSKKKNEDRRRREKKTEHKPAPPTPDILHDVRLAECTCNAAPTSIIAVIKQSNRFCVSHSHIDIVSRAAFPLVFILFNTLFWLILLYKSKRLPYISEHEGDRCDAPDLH
# T3 sequence (G5ECD3 entry or part of it): as the sequence (G5ECD3 entry or part of it) above
# T4 sequence (G5ECD3 23-506): as the sequence (G5ECD3 entry or part of it) above
# T4 sequence (G5EE10 entry or part of it): as the sequence (G5ECD3 entry or part of it) above
# Chain of Y chimera (G5ECD3 23-506, stated change not applied): as the sequence (G5ECD3 entry or part of it) above
# Chain of QF-R (G5ECD3 23-506, stated change not applied): as the sequence (G5ECD3 entry or part of it) above
compound,measurement,setting,value
C[C@]12CC[C@@H](O)C[C@@H]1CC[C@@H]1[C@@H]2CC[C@]2(C)[C@@H](C(=O)CO)CC[C@@H]12 [5α-3α-THDOC],positive modulation by neurosteroid,[1],greatly-reduced positive modulation
"CCCC(C)C1(CC)C(=O)NC(=O)NC1=O (centres unmarked) [PB, pentobarbital]",EC50,[2],369 ± 23.1 µM
CCCC(C)C1(CC)C(=O)NC(=O)NC1=O (centres unmarked) [Pentobarbital],pentobarbital enhancement,UNC-49B homomer [3],more strongly than UNC-49B/C heteromers
CC(=O)[C@H]1CC[C@H]2[C@@H]3CC[C@@H]4C[C@H](O)CC[C@]4(C)[C@H]3CC[C@]12C [pregnanolone],pregnanolone modulation,UNC-49B homomer [4],inhibited
same,pregnanolone modulation,UNC-49B/C heteromer [5],inhibited
same,direct activation by pregnanolone,UNC-49B homomer [3]; UNC-49B homomer,fails to directly activate
same,pregnanolone modulation,UNC-49B homomer [3]; UNC-49B homomer,"inhibits, rather than enhances"
same,direct activation by pregnanolone,B-β3 chimera,directly activated
same,pregnanolone modulation,B-β3 chimera,enhanced
picrotoxin [listing 1 of 2 here],picrotoxin sensitivity,QF-R,identical
same,fold difference in picrotoxin sensitivity,UNC-49B-PS7,50 fold
same,picrotoxin sensitivity,Y chimera,identical
same,picrotoxin inhibition,UNC-49B homomer [3]; UNC-49B homomers,strongly inhibits
same,picrotoxin sensitivity,UNC-49B homomer [3]; wild-type UNC-49B compared with QF-R subunit and Y chimera (UNC-49B curve from Bamber et al. 2003),identical
same,picrotoxin inhibition,UNC-49B/C heteromer [6],only weakly inhibits
picrotoxin [listing 2 of 2 here],IC50,[7],166 ± 42 µM
same,IC50,[8],0.89 ± 0.15 µM
